The record followed here is US12018021B2 (UCB Biopharma SRL, priority 2018, dated 2024).

Structures are written as SMILES.

Sequence of IgE-Tb / sFcεRIα-Y131A-AF488 (P01854 whole entry N146Q/N252Q): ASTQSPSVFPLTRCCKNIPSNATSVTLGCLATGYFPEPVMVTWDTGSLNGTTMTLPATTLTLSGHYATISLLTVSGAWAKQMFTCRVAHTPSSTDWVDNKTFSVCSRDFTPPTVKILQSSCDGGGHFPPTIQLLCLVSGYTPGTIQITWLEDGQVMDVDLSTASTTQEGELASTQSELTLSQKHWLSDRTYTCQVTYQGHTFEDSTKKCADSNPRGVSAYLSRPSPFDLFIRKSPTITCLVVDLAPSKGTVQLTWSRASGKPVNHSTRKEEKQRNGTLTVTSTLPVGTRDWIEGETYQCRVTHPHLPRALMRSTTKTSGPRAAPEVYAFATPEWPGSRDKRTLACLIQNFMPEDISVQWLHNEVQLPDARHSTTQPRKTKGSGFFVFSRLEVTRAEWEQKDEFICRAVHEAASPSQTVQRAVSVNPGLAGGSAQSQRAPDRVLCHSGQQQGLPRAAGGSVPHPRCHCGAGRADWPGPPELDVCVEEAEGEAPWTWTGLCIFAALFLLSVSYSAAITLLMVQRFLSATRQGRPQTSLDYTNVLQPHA

The assay has as its target IgE-Tb / sFcεRIα-Y131A-AF488 (Homo sapiens, UniProt P01854, N146Q/N252Q). Nature of the assay: IgE-Tb / sFcεRIα-Y131A-AF488 FRET assay (protocol for examples 234 to 501). The format is binding. The conditions noted are these: examples 234 to 501: compound with IgE-Tb 30 minutes before sFcεRIα-Y131A-AF488, incubated 18 hours at room temperature; read-out: Y131A FRET IC50 range. In short, it runs like this:
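Compounds (10-point 3-fold series, top usually 10 μM, 2% DMSO) preincubated 30 min with 5 nM IgE-Tb, then 25 nM sFcεRIα-Y131A-AF488 added; 18 h at room temperature in the dark. TR-FRET ratio 520/490 nm after 337 nm excitation, background-subtracted; IC50 by four-parameter logistic fit.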
Broadly, the IC50 is the concentration that gives 50% inhibition. For `CS(=O)(=O)N1CC[C@@H](Nc2nncn2[C@H]2CCc3sc(NC(=O)C4CC4)c(C(=O)NCC4CC4)c3C2)C1` [Example 268, (5S)-2-(cyclopropanecarbonylamino)-N-(cyclopropylmethyl)-5-[3-[[(3R)-1-methylsulfonylpyrrolidin-3-yl]amino]-1,2,4-triazol-4-yl]-4,5,6,7-tetrahydrobenzothiophene-3-carboxamide], the IC50 was < 1000 nM.
To `O=C1CC(Nc2nncn2[C@H]2CCc3sc(NC(=O)C4CC4)c(C(=O)NCC4CC4)c3C2)CN1` (stereo partly drawn) [Example 270, (5S)-2-(cyclopropanecarbonylamino)-N-(cyclopropylmethyl)-5-[3-[(5-oxopyrrolidin-3-yl)amino]-1,2,4-triazol-4-yl]-4,5,6,7-tetrahydrobenzothiophene-3-carboxamide] belongs < 1000 nM.
Consider `O=C1CC(Nc2nncn2[C@H]2CCc3sc(NC(=O)C4CC4)c(C(=O)NCC4CC4)c3C2)CCN1` (stereo partly drawn) [Example 272, (5S)-2-(cyclopropanecarbonylamino)-N-(cyclopropylmethyl)-5-[3-[(2-oxo-4-piperidyl)amino]-1,2,4-triazol-4-yl]-4,5,6,7-tetrahydrobenzothiophene-3-carboxamide], for which the IC50 was < 1000 nM.
In the case of `CC(=O)N1CCC(Nc2nncn2[C@H]2CCc3sc(NC(=O)C4CC4)c(C(=O)NCC4CC4)c3C2)C1C` (stereo partly drawn) [Example 273, (5S)-5-[3-[(1-acetyl-2-methyl-pyrrolidin-3-yl)amino]-1,2,4-triazol-4-yl]-2-(cyclopropanecarbonylamino)-N-(cyclopropylmethyl)-4,5,6,7-tetrahydrobenzothiophene-3-carboxamide] it was < 1000 nM; in that of `CC(=O)N1CCC(Nc2nncn2[C@H]2CCc3sc(NC(=O)C4CC4)c(C(=O)NCC4CC4)c3C2)CC1` [Example 286, (5S)-5-[3-[(1-acetyl-4-piperidyl)amino]-1,2,4-triazol-4-yl]-2-(cyclopropanecarbonylamino)-N-(cyclopropylmethyl)-4,5,6,7-tetrahydrobenzothiophene-3-carboxamide], < 1000 nM; in that of `COC(=O)N1CC[C@H](Nc2nncn2[C@H]2CCc3sc(NC(=O)C4CC4)c(C(=O)NCC4CC4)c3C2)C1` [Example 287, Methyl (3S)-3-[[4-[(5S)-2-(cyclopropanecarbonylamino)-3-(cyclopropylmethylcarbamoyl)-4,5,6,7-tetrahydrobenzothiophen-5-yl]-1,2,4-triazol-3-yl]amino]pyrrolidine-1-carboxylate], < 1000 nM.
In the case of `CCNC(=O)N1CC[C@H](Nc2nncn2[C@H]2CCc3sc(NC(=O)C4CC4)c(C(=O)NCC4CC4)c3C2)C1` [Example 288, (3S)-3-[[4-[(5S)-2-(cyclopropanecarbonylamino)-3-(cyclopropylmethylcarbamoyl)-4,5,6,7-tetrahydrobenzothiophen-5-yl]-1,2,4-triazol-3-yl]amino]-N-ethyl-pyrrolidine-1-carboxamide] it was < 1000 nM; in that of `Cn1nc(OC(F)(F)F)cc1Nc1nncn1[C@H]1CCc2sc(NC(=O)[C@H]3C[C@H]3F)c(C(=O)NCC3CC3)c2C1` [Example 292, (5S)—N-(cyclopropylmethyl)-2-[[(1R,2R)-2-fluorocyclopropanecarbonyl]amino]-5-[3-[[2-methyl-5-(trifluoromethoxy)pyrazol-3-yl]amino]-1,2,4-triazol-4-yl]-4,5,6,7-tetrahydrobenzothiophene-3-carboxamide], < 1000 nM.
To `Cn1nc(OC(F)(F)Cl)cc1Nc1nncn1[C@H]1CCc2sc(NC(=O)[C@H]3C[C@H]3F)c(C(=O)NCC3CC3)c2C1` [Example 293, (5S)-5-[3-[[5-[chloro(difluoro)methoxy]-2-methyl-pyrazol-3-yl]amino]-1,2,4-triazol-4-yl]-N-(cyclopropylmethyl)-2-[[(1R,2R)-2-fluorocyclopropanecarbonyl]amino]-4,5,6,7-tetrahydrobenzothiophene-3-carboxamide] belongs < 1000 nM; to `Cn1nc(OC(F)(F)F)cc1Nc1nncn1[C@H]1CCc2sc(NC(=O)C3CC3)c(C(=O)NCC3CC3)c2C1` [Example 294, (5S)-2-(cyclopropanecarbonylamino)-N-(cyclopropylmethyl)-5-[3-[[2-methyl-5-(trifluoromethoxy)pyrazol-3-yl]amino]-1,2,4-triazol-4-yl]-4,5,6,7-tetrahydrobenzothiophene-3-carboxamide], < 1000 nM.
As to `Cn1nc(OC(F)(F)Cl)cc1Nc1nncn1[C@H]1CCc2sc(NC(=O)C3CC3)c(C(=O)NCC3CC3)c2C1` [Example 295, (5S)-5-[3-[[5-[chloro(difluoro)methoxy]-2-methyl-pyrazol-3-yl]amino]-1,2,4-triazol-4-yl]-2-(cyclopropanecarbonylamino)-N-(cyclopropylmethyl)-4,5,6,7-tetrahydrobenzothiophene-3-carboxamide], the IC50 was < 1000 nM.
To `Cc1nnc(-c2cc(Nc3nncn3[C@H]3CCc4sc(NC(=O)C5CC5)c(C(=O)NCC5CC5)c4C3)n(C)n2)o1` [Example 296, (5S)-2-cyclopropaneamido-N-(cyclopropylmethyl)-5-(3-{[1-methyl-3-(5-methyl-1,3,4-oxadiazol-2-yl)-1H-pyrazol-5-yl]amino}-4H-1,2,4-triazol-4-yl)-4,5,6,7-tetrahydro-1-benzothiophene-3-carboxamide] belongs < 1000 nM; to `COc1cnc(Nc2nncn2[C@H]2CCc3sc(NC(=O)C4CC4)c(C(=O)NCC4CC4)c3C2)c(C)n1` [Example 297, (5S)-2-(cyclopropanecarbonylamino)-N-(cyclopropylmethyl)-5-[3-[(5-methoxy-3-methyl-pyrazin-2-yl)amino]-1,2,4-triazol-4-yl]-4,5,6,7-tetrahydrobenzothiophene-3-carboxamide], < 1000 nM; to `Cc1ccc2nc(N[C@H]3CCc4sc(NC(=O)C5CC5)c(C(=O)NCC5CC5)c4C3)sc2n1` [Example 298, (5S)-2-(cyclopropanecarbonylamino)-N-(cyclopropylmethyl)-5-[(5-methylthiazolo[5,4-b]pyridin-2-yl)amino]-4,5,6,7-tetrahydrobenzothiophene-3-carboxamide], < 1000 nM.
In the case of `Cc1ncc(C#N)cc1Nc1nncn1[C@H]1CCc2sc(NC(=O)C3CC3)c(C(=O)NCC3CC3)c2C1` [Example 299, (5S)-5-[3-[(5-cyano-2-methyl-3-pyridyl)amino]-1,2,4-triazo-4-yl]-2-(cyclopropanecarbonylamino)-N-(cyclopropylmethyl)-4,5,6,7-tetrahydrobenzothiophene-3-carboxamide] it was < 1000 nM; in that of `Cc1nc(C#N)ccc1Nc1nncn1[C@H]1CCc2sc(NC(=O)C3CC3)c(C(=O)NCC3CC3)c2C1` [Example 300, (5S)-5-[3-[(6-cyano-2-methyl-3-pyridyl)amino]-1,2,4-triazol-4-yl]-2-(cyclopropanecarbonylamino)-N-(cyclopropylmethyl)-4,5,6,7-tetrahydrobenzothiophene-3-carboxamide], < 1000 nM.
To `Cn1ccc(Nc2nncn2[C@H]2CCc3sc(NC(=O)C4CC4)c(C(=O)NCC4CC4)c3C2)cc1=O` [Example 301, (5S)-2-(cyclopropanecarbonylamino)-N-(cyclopropylmethyl)-5-[3-[(1-methyl-2-oxo-4-pyridyl)amino]-1,2,4-triazol-4-yl]-4,5,6,7-tetrahydrobenzothiophene-3-carboxamide] belongs < 1000 nM.
